In patent US20160045498A1, “METHODS OF TREATING DISEASES CHARACTERIZED BY EXCESSIVE WNT SIGNALLING” (THE WALTER AND ELIZA HALL INSTITUTE OF MEDICAL RESEARCH, priority 2013, published 2016):

Columns and labels:
SW480 cells [1] = test: p-STAT3 / β-CATENIN immunofluorescence and SOCS3 RT-qPCR in SW480 cells; format: cell-based, human
Method: (§1) d Immunofluorescence staining for β-CATENIN or tyrosine-705 phosphorylated STAT3 in an isogenic pair of SW480 cells grown in the presence of 1 μM AZD1480 (Jak2i) or vehicle. SW480 cells are APC mutant and lack expression of functional APC protein, while SW480^APC cells have been reconstituted to express wild-type APC. Scale bar=20 μm.
(§2) g RT-qPCR expression analysis for the STAT3 target gene SOCS3 in SW480 and SW480^APC CRC cells grown for 10 days under colony forming conditions in soft agar in the presence of the indicated treatment. Expression in the vehicle-treated cultures was arbitrarily set as 1. (*p≦0.04; triplicate cultures in each of two repeats).
(§3) SW480 and SW480^APC cells (Faux et al., 2004) were seeded in 2 ml of RPMI media supplemented with 10% FBS and 1% penicillin/streptomycin in 35 mm culture dishes at a density of 2×10^5 cells per dish. Three days later cultures were exposed to AZD1480 (1 μM) for 15 min. Co-immunofluorescence was then performed with antibodies to rabbit phospho-Stat3 (Tyr705, Santa Cruz #9134s, 1:200 dilution) and mouse β-catenin (Transduction Laboratories, 1:400). Colony formation assays of SW480 cells in soft agar were performed as described (Faux et al., 2004) in the presence of either AZD1480, (1 μM), the Stat3 inhibitor S3I-201 (Biovision, 50 μM) or recombinant human IL11 (Genetics Institute, 10 ng/ml). All experiments were performed in triplicates and repeated at least once. Vehicle was methylcellulose.
(§4) Gene expression analysis by RT-qPCR was performed using the SybrGreen method (ABI) as described previously (Phesse et al., 2008). Fold change was calculated using the 2^−ΔΔCT method (Livak et al., 2001). Protein expression was analysed by Western blot by transferring SDS-PAGE separated protein lysates to nitrocellulose membrane and blocked either in 5% non-fat milk powder and probed with antibodies detecting p16 (Santa Cruz; #sc-467), Bmi1 (Millipore #[…]), Actin (Sigma; #A2066) or Gapdh (Santa Cruz; #sc-69778). All antibodies were diluted 1:1000 in BSA or non-fat milk powder and incubations were performed overnight.

intestinal tumours = test: Intestinal tumour burden after tamoxifen-induced conditional Apc deletion in Lgr5CreERT2;Apcfl/fl mice; format: in vivo; details: tamoxifen-treated Lgr5^CreERT2;Apc^fl/fl mice, prophylactic daily AZD1480 30 mg/kg, 5 weeks
Method: e Quantification of intestinal tumour burden of mice using the Metamorph analysis tool (Barker et al., 2009) after tamoxifen-induced conditional Apc deletion in adult Lgr5^CreERT2;Apc^fl/fl mice that also received daily administration of AZD1480 (30 mg/kg) or vehicle during this time. (*p≦0.04; n=3 mice).
d Intestinal tumour burden 5 weeks after tamoxifen-induced conditional Apc deletion in adult Lgr5^CreERT2;Apc^fl/fl mice that also received daily administration of AZD1480 (Jak2i; 30 mg/kg) or vehicle during this time. Higher magnifications of the boxed areas are provided and arrows point to tubular adenomas whilst arrowheads point to micro-adenomas. Scale bars=1 mm.
10 week old Lgr5CreERT2;Apcfl/fl mice received four i.p injections with tamoxifen (10 mg/ml; 300 ul, 200 ul, 200 ul, 200 ul) over four consecutive days. Three days after the last injection, mice received daily oral gavages with either vehicle (tap water, pH 2.0) or CYT387 (30 mg/kg) for four weeks. Regime was 5 days treatment followed by 2 days off treatment.
Hematoxilin and Eosin-stained sections were scanned using an Aperio ScanScope XT (Aperio, USA) pathology slide scanner with a 20x PlanApo NA0.6 objective and areas of interest were extracted using Aperio ImageScope software v11.1.2.760. The area of individual tumors was outlined using MetaMorph v7.7.7 and standardized against the entire length of the colon section as described (Barker et al., 2009).

SW480 cells [2] = test: Soft agar colony growth assay, SW480; format: cell-based, human; details: SW480, 10 days; AZD1480 1 μM, S3I-201 50 μM, IL11 10 ng/ml
Method: e Photograph of SW480 and SW480^APC CRC cells grown for 10 days under colony forming conditions in soft agar in the presence of vehicle or 1 μM of Jak2 inhibitor AZD1480 (Jak2i) (Scale bar=200 μm)
f Colony forming capacity of an isogenic pair of SW480 cells scored 10 days after the indicated treatment. (*p≦0.04; triplicate cultures and repeated).
as §3

DLD1 cells = test: DLD1 tumor xenografts; format: in vivo, mice (human DLD1 xenograft); details: DLD1 (high Wnt signaling), BALB/c nude mice, daily gavage 30 mg/kg from day 7
Method: c, d Tumour xenograft burden in BALB/c nude mice injected s.c. with DLD1 cells or RKO cells in PBS and receiving daily gavage with AZD1480 (30 mg/kg) or vehicle starting on the 7th day after cell inoculation. (*p≦0.0004; two sided t-test; n=8).

SW480^APC cells = test: p-STAT3 immunofluorescence and SOCS3 RT-qPCR in SW480APC cells; format: cell-based, human
Method: as §1, §2, §3, §4

Cc1cc(Nc2nc(N[C@@H](C)c3ncc(F)cn3)ncc2Cl)n[nH]1 [AZD1480]
accumulation of nuclear β-CATENIN (SW480 cells [1]; APC-deficient SW480, 1 μM AZD1480): did not diminish | accumulation of activated (phosphorylated) p-STAT3 (SW480 cells [1]; SW480, 1 μM AZD1480): reduced accumulation | SOCS3 expression (SW480 cells [1]; SW480, RT-qPCR, AZD1480 1 μM, IL11 10 ng/ml): reduced SOCS3 expression | growth and de novo tumour formation (intestinal tumours): profoundly reduced | colony formation in soft agar (SW480 cells [2]): strongly impaired | xenograft growth (DLD1 cells): sufficient to reduce xenograft growth | accumulation of activated (phosphorylated) p-STAT3 (SW480^APC cells; 1 μM AZD1480): reduced accumulation | SOCS3 expression (SW480^APC cells; RT-qPCR, AZD1480 1 μM, IL11 10 ng/ml): reduced SOCS3 expression
